Source: ChEMBL document CHEMBL3885881, “DrugMatrix”

Species: Rattus norvegicus
Experiment: DrugMatrix - Regimen: Daily Repeat
Type: toxicity, organism-based, Sprague-Dawley
Design: regimen Daily Repeat, gender Male, age 6-8 weeks
Conditions: in vivo, po, route oral GAVAGE, vehicle .5 % CMC; for ABSOLUTE BASOPHIL / ABSOLUTE EOSINOPHIL / ABSOLUTE LYMPHOCYTE / ABSOLUTE SEGMENTED NEUTROPHIL / BASOPHIL / EOSINOPHIL / ERYTHROCYTE COUNT / HEMATOCRIT / LYMPHOCYTE / MEAN CORPUSCULAR HEMOGLOBIN / MEAN CORPUSCULAR HEMOGLOBIN CONCENTRATION / MEAN CORPUSCULAR VOLUME / MONOCYTE / NEUTROPHIL / NUCLEATED RED BLOOD CELLS / PLATELET COUNT / LEUKOCYTE COUNT: tissue Blood; for ALANINE AMINOTRANSFERASE / ALBUMIN / ALKALINE PHOSPHATASE / ASPARTATE AMINOTRANSFERASE / BLOOD UREA NITROGEN / CARBON DIOXIDE / CHLORIDE / CHOLESTEROL / CREATINE PHOSPHOKINASE / CREATININE / GLUCOSE / LACTATE DEHYDROGENASE / PHOSPHORUS / POTASSIUM / SODIUM / TOTAL BILIRUBIN / TOTAL PROTEIN / URIC ACID: tissue Plasma
[1] = 0 mg/kg, 72 h, dose level Control, time 3 day
[2] = 0 mg/kg, 120 h, dose level Control, time 5 day
[3] = 3 mg/kg, 72 h, dose level Low, time 3 day
[4] = 3 mg/kg, 120 h, dose level Low, time 5 day

Structure (SMILES): CCN(CC)CCOc1ccc(/C(=C(/Cl)c2ccccc2)c2ccccc2)cc1 [ENCLOMIPHENE]
- ABSOLUTE BASOPHIL [1]: 0 CELLS/uL
- ABSOLUTE EOSINOPHIL [1]: 222.83 CELLS/uL
- ABSOLUTE LYMPHOCYTE [1]: 14453 CELLS/uL
- ABSOLUTE SEGMENTED NEUTROPHIL [1]: 1490.83 CELLS/uL
- BASOPHIL [1]: 0%
- EOSINOPHIL [1]: 1.33%
- ERYTHROCYTE COUNT [1]: 5.76 x10E6/uL
- HEMATOCRIT [1]: 36.52%
- LYMPHOCYTE [1]: 89.33%
- MEAN CORPUSCULAR HEMOGLOBIN [1]: 23.37 pg
- MEAN CORPUSCULAR HEMOGLOBIN CONCENTRATION [1]: 36.85 G/DL
- MEAN CORPUSCULAR VOLUME [1]: 63.47 fL
- MONOCYTE [1]: 0%
- NEUTROPHIL [1]: 9.33%
- NUCLEATED RED BLOOD CELLS [1]: 0 /100WBC
- PLATELET COUNT [1]: 1239.5 x10E3/uL
- ALANINE AMINOTRANSFERASE [1]: 43.83 u/L
- ALBUMIN [1]: 4.27 G/DL
- ALKALINE PHOSPHATASE [1]: 398.83 u/L
- ASPARTATE AMINOTRANSFERASE [1]: 81.17 u/L
- BLOOD UREA NITROGEN [1]: 17.67 mg/dL
- CARBON DIOXIDE [1]: 27.5 mmol/L
- CHLORIDE [1]: 99.17 MEQ/L
- CHOLESTEROL [1]: 74 mg/dL
- CREATINE PHOSPHOKINASE [1]: 331.5 u/L
- CREATININE [1]: 0.2 mg/dL
- GLUCOSE [1]: 171.33 mg/dL
- LACTATE DEHYDROGENASE [1]: 241.67 u/L
- PHOSPHORUS [1]: 12.25 mg/dL
- POTASSIUM [1]: 6.33 MEQ/L
- SODIUM [1]: 141.28 MEQ/L
- TOTAL BILIRUBIN [1]: 0.15 mg/dL
- TOTAL PROTEIN [1]: 5.98 G/DL
- URIC ACID [1]: 1.63 mg/dL
- ABSOLUTE BASOPHIL [2]: 0 CELLS/uL
- ABSOLUTE EOSINOPHIL [2]: 148.67 CELLS/uL
- ABSOLUTE LYMPHOCYTE [2]: 16020.5 CELLS/uL
- ABSOLUTE SEGMENTED NEUTROPHIL [2]: 1468.33 CELLS/uL
- BASOPHIL [2]: 0%
- EOSINOPHIL [2]: 1%
- ERYTHROCYTE COUNT [2]: 5.78 x10E6/uL
- HEMATOCRIT [2]: 35.77%
- LEUKOCYTE COUNT [2]: 17.67 x10E3/uL
- LYMPHOCYTE [2]: 90.5%
- MEAN CORPUSCULAR HEMOGLOBIN [2]: 23.22 pg
- MEAN CORPUSCULAR HEMOGLOBIN CONCENTRATION [2]: 37.47 G/DL
- MEAN CORPUSCULAR VOLUME [2]: 61.92 fL
- MONOCYTE [2]: 0.17%
- NEUTROPHIL [2]: 8.33%
- NUCLEATED RED BLOOD CELLS [2]: 0.17 /100WBC
- PLATELET COUNT [2]: 1255.5 x10E3/uL
- ALANINE AMINOTRANSFERASE [2]: 46.5 u/L
- ALBUMIN [2]: 4.38 G/DL
- ALKALINE PHOSPHATASE [2]: 336 u/L
- ASPARTATE AMINOTRANSFERASE [2]: 76.5 u/L
- BLOOD UREA NITROGEN [2]: 20 mg/dL
- CARBON DIOXIDE [2]: 27.5 mmol/L
- CHLORIDE [2]: 101 MEQ/L
- CHOLESTEROL [2]: 71.33 mg/dL
- CREATINE PHOSPHOKINASE [2]: 231.83 u/L
- CREATININE [2]: 0.37 mg/dL
- GLUCOSE [2]: 168.83 mg/dL
- LACTATE DEHYDROGENASE [2]: 174 u/L
- PHOSPHORUS [2]: 11.48 mg/dL
- POTASSIUM [2]: 6.82 MEQ/L
- SODIUM [2]: 143.8 MEQ/L
- TOTAL BILIRUBIN [2]: 0.2 mg/dL
- TOTAL PROTEIN [2]: 5.98 G/DL
- URIC ACID [2]: 1.83 mg/dL
- ABSOLUTE BASOPHIL [3]: 0 CELLS/uL
- ABSOLUTE EOSINOPHIL [3]: 54.33 CELLS/uL
- ABSOLUTE LYMPHOCYTE [3]: 13020.67 CELLS/uL
- ABSOLUTE SEGMENTED NEUTROPHIL [3]: 996.33 CELLS/uL
- BASOPHIL [3]: 0%
- EOSINOPHIL [3]: 0.33%
- ERYTHROCYTE COUNT [3]: 5.87 x10E6/uL
- HEMATOCRIT [3]: 35.93%
- LEUKOCYTE COUNT [3]: 14.23 x10E3/uL
- LYMPHOCYTE [3]: 91.67%
- MEAN CORPUSCULAR HEMOGLOBIN [3]: 24.23 pg
- MEAN CORPUSCULAR HEMOGLOBIN CONCENTRATION [3]: 39.57 G/DL
- MEAN CORPUSCULAR VOLUME [3]: 61.2 fL
- MONOCYTE [3]: 1%
- NEUTROPHIL [3]: 7%
- NUCLEATED RED BLOOD CELLS [3]: 0 /100WBC
- PLATELET COUNT [3]: 1129 x10E3/uL
- ALANINE AMINOTRANSFERASE [3]: 57.33 u/L
- ALBUMIN [3]: 4.5 G/DL
- ALKALINE PHOSPHATASE [3]: 614.33 u/L
- ASPARTATE AMINOTRANSFERASE [3]: 88 u/L
- BLOOD UREA NITROGEN [3]: 13.67 mg/dL
- CARBON DIOXIDE [3]: 25.33 mmol/L
- CHLORIDE [3]: 105.67 MEQ/L
- CHOLESTEROL [3]: 37 mg/dL
- CREATINE PHOSPHOKINASE [3]: 178 u/L
- CREATININE [3]: 0.16 mg/dL
- GLUCOSE [3]: 148 mg/dL
- LACTATE DEHYDROGENASE [3]: 196.67 u/L
- PHOSPHORUS [3]: 13.37 mg/dL
- POTASSIUM [3]: 6.75 MEQ/L
- SODIUM [3]: 151.6 MEQ/L
- TOTAL BILIRUBIN [3]: 0.2 mg/dL
- TOTAL PROTEIN [3]: 6.17 G/DL
- URIC ACID [3]: 1.43 mg/dL
- ABSOLUTE BASOPHIL [4]: 0 CELLS/uL
- ABSOLUTE EOSINOPHIL [4]: 38.33 CELLS/uL
- ABSOLUTE LYMPHOCYTE [4]: 13151.33 CELLS/uL
- ABSOLUTE SEGMENTED NEUTROPHIL [4]: 736.67 CELLS/uL
- BASOPHIL [4]: 0%
- EOSINOPHIL [4]: 0.33%
- ERYTHROCYTE COUNT [4]: 6.2 x10E6/uL
- HEMATOCRIT [4]: 39.87%
- LEUKOCYTE COUNT [4]: 14.1 x10E3/uL
- LYMPHOCYTE [4]: 93.33%
- MEAN CORPUSCULAR HEMOGLOBIN [4]: 24.13 pg
- MEAN CORPUSCULAR HEMOGLOBIN CONCENTRATION [4]: 37.57 G/DL
- MEAN CORPUSCULAR VOLUME [4]: 64.33 fL
- MONOCYTE [4]: 1%
- NEUTROPHIL [4]: 5.33%
- NUCLEATED RED BLOOD CELLS [4]: 0 /100WBC
- PLATELET COUNT [4]: 1362.67 x10E3/uL
- ALANINE AMINOTRANSFERASE [4]: 51.67 u/L
